Experimental data published in the supplement of paper PMC10307832.

Legend:
Assay in all cases: relative viability (nuclei count vs DMSO), 5 days (fraction); higher = more cells survive
[1] = test system: NCI-H2023
In short: (§1)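 Medians of duplicate plates are given as relative viability. That measure is the nuclei count in treated wells divided by the count in vehicle wells. Counts were taken on 4× images of lung cancer cell lines in 1536-well plates, 5 days after pin-tool dosing the day after seeding with one drug alone or a fixed anchor-drug dose plus five library-drug doses (not always all listed) in √10 steps.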

[2] = test system: NCI-H2347
In short: as §1

[3] = test system: NCI-H1563
In short: as §1

[4] = test system: NCI-H1650
In short: as §1

[5] = test system: NCI-H2009
In short: as §1

[6] = test system: HOP-62
In short: as §1

[7] = test system: NCI-H2085
In short: as §1

[8] = test system: SW 1573
In short: as §1

[9] = test system: SK-LU-1
In short: as §1

[10] = test system: NCI-H322M
In short: as §1

[11] = test system: NCI-H647
In short: as §1

[12] = test system: PC-14
In short: as §1

[13] = test system: NCI-H1915
In short: as §1

[14] = test system: EMC-BAC-2
In short: as §1

[15] = test system: NCI-H2126
In short: as §1

[16] = test system: H3255
In short: as §1

[17] = test system: NCI-H1993
In short: as §1

[18] = test system: NCI-H727
In short: as §1

[19] = test system: LCLC-97TM1
In short: as §1

[20] = test system: EPLC-272H
In short: as §1

[21] = test system: LXF-289
In short: as §1

[22] = test system: NCI-H661
In short: as §1

## Oc1nc(-c2ccc(C(F)(F)F)cc2)nc2c1CSCC2 [XAV939] + CS(=O)(=O)N1CCN(Cc2cc3nc(-c4cccc5[nH]ncc45)nc(N4CCOCC4)c3s2)CC1 [Pictilisib] (partner 1 µM)
[1]; first compound 0.08 µM
  relative viability: 0.177
[1]; first compound 0.253 µM
  relative viability: 0.187
[1]; first compound 0.8 µM
  relative viability: 0.176
[1]; first compound 2.53 µM
  relative viability: 0.158
[2]; first compound 0.08 µM
  relative viability: 0.681
[2]; first compound 0.253 µM
  relative viability: 0.636
[2]; first compound 0.8 µM
  relative viability: 0.418
[2]; first compound 2.53 µM
  relative viability: 0.523
[3]; first compound 0.08 µM
  relative viability: 0.645
[3]; first compound 0.253 µM
  relative viability: 0.656
[3]; first compound 0.8 µM
  relative viability: 0.605
[3]; first compound 2.53 µM
  relative viability: 0.611
[4]; first compound 0.08 µM
  relative viability: 0.587
[4]; first compound 0.253 µM
  relative viability: 0.615
[4]; first compound 0.8 µM
  relative viability: 0.49
[4]; first compound 2.53 µM
  relative viability: 0.394
[5]; first compound 0.08 µM
  relative viability: 0.878
[5]; first compound 0.253 µM
  relative viability: 0.718
[5]; first compound 0.8 µM
  relative viability: 0.67
[5]; first compound 2.53 µM
  relative viability: 0.511
[6]; first compound 0.08 µM
  relative viability: 1.04
[6]; first compound 0.253 µM
  relative viability: 0.62
[6]; first compound 0.8 µM
  relative viability: 0.596
[6]; first compound 2.53 µM
  relative viability: 0.672
[7]; first compound 0.08 µM
  relative viability: 0.388
[7]; first compound 0.253 µM
  relative viability: 0.412
[7]; first compound 0.8 µM
  relative viability: 0.445
[7]; first compound 2.53 µM
  relative viability: 0.355
[8]; first compound 0.08 µM
  relative viability: 0.542
[8]; first compound 0.253 µM
  relative viability: 0.403
[8]; first compound 0.8 µM
  relative viability: 0.357
[8]; first compound 2.53 µM
  relative viability: 0.392
[9]; first compound 0.08 µM
  relative viability: 0.631
[9]; first compound 0.253 µM
  relative viability: 0.504
[9]; first compound 0.8 µM
  relative viability: 0.646
[9]; first compound 2.53 µM
  relative viability: 0.565
[10]; first compound 0.08 µM
  relative viability: 0.572
[10]; first compound 0.253 µM
  relative viability: 0.491
[10]; first compound 0.8 µM
  relative viability: 0.541
[10]; first compound 2.53 µM
  relative viability: 0.439
[11]; first compound 0.08 µM
  relative viability: 0.471
[11]; first compound 0.253 µM
  relative viability: 0.378
[11]; first compound 0.8 µM
  relative viability: 0.381
[11]; first compound 2.53 µM
  relative viability: 0.51
[12]; first compound 0.08 µM
  relative viability: 0.859
[12]; first compound 0.253 µM
  relative viability: 0.662
[12]; first compound 0.8 µM
  relative viability: 0.767
[12]; first compound 2.53 µM
  relative viability: 0.386
[13]; first compound 0.08 µM
  relative viability: 1.11
[13]; first compound 0.253 µM
  relative viability: 0.967
[13]; first compound 0.8 µM
  relative viability: 0.941
[13]; first compound 2.53 µM
  relative viability: 0.921
[14]; first compound 0.08 µM
  relative viability: 0.56
[14]; first compound 0.253 µM
  relative viability: 0.487
[14]; first compound 0.8 µM
  relative viability: 0.416
[14]; first compound 2.53 µM
  relative viability: 0.314
[15]; first compound 0.08 µM
  relative viability: 0.477
[15]; first compound 0.253 µM
  relative viability: 0.448
[15]; first compound 0.8 µM
  relative viability: 0.473
[15]; first compound 2.53 µM
  relative viability: 0.406
[16]; first compound 0.08 µM
  relative viability: 0.486
[16]; first compound 0.253 µM
  relative viability: 0.374
[16]; first compound 0.8 µM
  relative viability: 0.499
[16]; first compound 2.53 µM
  relative viability: 0.288
[17]; first compound 0.8 µM
  relative viability: 0.911
[17]; first compound 2.53 µM
  relative viability: 0.7
[18]; first compound 0.08 µM
  relative viability: 0.367
[18]; first compound 0.253 µM
  relative viability: 0.324
[18]; first compound 0.8 µM
  relative viability: 0.415
[18]; first compound 2.53 µM
  relative viability: 0.357
[19]; first compound 0.08 µM
  relative viability: 0.169
[19]; first compound 0.253 µM
  relative viability: 0.198
[19]; first compound 0.8 µM
  relative viability: 0.165
[19]; first compound 2.53 µM
  relative viability: 0.18
[20]; first compound 0.08 µM
  relative viability: 0.347
[20]; first compound 0.253 µM
  relative viability: 0.36
[20]; first compound 0.8 µM
  relative viability: 0.302
[20]; first compound 2.53 µM
  relative viability: 0.323
[21]; first compound 0.08 µM
  relative viability: 0.872
[21]; first compound 0.253 µM
  relative viability: 0.731
[21]; first compound 0.8 µM
  relative viability: 0.764
[21]; first compound 2.53 µM
  relative viability: 0.597
[22]; first compound 0.08 µM
  relative viability: 0.477
[22]; first compound 0.253 µM
  relative viability: 0.378
[22]; first compound 0.8 µM
  relative viability: 0.329
[22]; first compound 2.53 µM
  relative viability: 0.267
